Results published in PubChem BioAssay AID248 (DTP/NCI, 2004).
Values joined by “and” are separate entries in the source; they are usually repeats but may differ in a detail not shown here. Equal values may be shown once. Toxic doses and inconclusive results are not listed. Rule as the data show it: active = T/C of 150% or more; inactive = T/C below 125%.

Tested on: L1210 leukemia ip in BDF1 mice, survival T/C
Test: NCI In Vivo Anticancer Drug Screen. Data for tumor model L1210 Leukemia (intraperitoneal) in B6D2F1 (BDF1) mice
Conditions: endpoint: mean survival time, higher = longer survival
Summary of the method: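 Tumor cells were implanted, animals were treated, and survival was followed. The result divides the treated measurement by the vehicle-control measurement.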

[1] = dose: 100.0 mg/kg/injection, schedule: Q01DX009 (ip), vehicle: saline with Tween-80
[2] = dose: 200.0 mg/kg/injection, schedule: Q01DX009 (ip), vehicle: saline with Tween-80
[3] = dose: 100.0 mg/kg/injection, schedule: Q01DX001 (ip), vehicle: Klucel (hydroxypropylcellulose) (HPC)
[4] = dose: 200.0 mg/kg/injection, schedule: Q01DX001 (ip), vehicle: Klucel (hydroxypropylcellulose) (HPC)
[5] = dose: 400.0 mg/kg/injection, schedule: Q01DX001 (ip), vehicle: Klucel (hydroxypropylcellulose) (HPC)
[6] = dose: 100.0 mg/kg/injection, schedule: Q04DX003 (ip), vehicle: Klucel (hydroxypropylcellulose) (HPC)
[7] = dose: 200.0 mg/kg/injection, schedule: Q04DX003 (ip), vehicle: Klucel (hydroxypropylcellulose) (HPC)
[8] = dose: 100.0 mg/kg/injection, schedule: Q01DX001 (ip), vehicle: saline
[9] = dose: 200.0 mg/kg/injection, schedule: Q01DX001 (ip), vehicle: saline
[10] = dose: 100.0 mg/kg/injection, schedule: Q04DX003 (ip), vehicle: saline with Tween-80
[11] = dose: 200.0 mg/kg/injection, schedule: Q04DX003 (ip), vehicle: saline with Tween-80
[12] = dose: 400.0 mg/kg/injection, schedule: Q01DX009 (ip), vehicle: saline with Tween-80
[13] = dose: 400.0 mg/kg/injection, schedule: Q04DX003 (ip), vehicle: saline with Tween-80

Measured: T/C

CCC(=O)Nc1cccc(OC(=O)NC(C)C)c1
inactive: [1] 95 % of control | [2] 90 % of control

O=[N+]([O-])c1ccc(N2CCCC2)cc1
inactive: [3] 97 % of control | [4] 105 % of control | [5] 108 % of control

CC(=NC(Cc1ccccc1)C(=O)O)NC(Cc1ccccc1)C(=O)O (stereo not given)
inactive: dose: 100.0 mg/kg/injection, schedule: Q01DX009 (ip), vehicle: saline 106 % of control | dose: 200.0 mg/kg/injection, schedule: Q01DX009 (ip), vehicle: saline 101 % of control | dose: 400.0 mg/kg/injection, schedule: Q01DX009 (ip), vehicle: saline 100 % of control

O=C1OC(c2ccccc2)=N/C1=C/c1cccs1
inactive: dose: 100.0 mg/kg/injection, schedule: Q01DX009 (ip), vehicle: Klucel (hydroxypropylcellulose) (HPC) 104 % of control | [6] 98 % of control | dose: 200.0 mg/kg/injection, schedule: Q01DX009 (ip), vehicle: Klucel (hydroxypropylcellulose) (HPC) 97 % of control | [7] 104 % of control | dose: 400.0 mg/kg/injection, schedule: Q01DX009 (ip), vehicle: Klucel (hydroxypropylcellulose) (HPC) 101 % of control | dose: 400.0 mg/kg/injection, schedule: Q04DX003 (ip), vehicle: Klucel (hydroxypropylcellulose) (HPC) 106 % of control

OC1CCCN(Cc2ccccc2)C1 (stereo not given)
inactive: [8] 107 % of control | [9] 96 % of control

Cc1ccc(C(=O)O)cc1S(=O)(=O)F
inactive: [1] 96 % of control | [10] 107 % of control | [2] 96 % of control | [11] 91 % of control | [12] 90 % of control | [13] 91 % of control

O=C(COc1ccc(Cl)cc1C(=O)O)Nc1cccc(NC(=O)Nc2ccc(S(=O)(=O)F)cc2)c1
inactive: [3] 91 % of control | [4] 101 % of control | [5] 93 % of control

COC(=O)N1C2C3C(C)=C(C)C2(C)C3(C)S1(=O)=O (stereo not given)
inactive: [3] 93 % of control | [6] 101 % of control | [4] 93 % of control | [7] 106 % of control | [5] 97 % of control

CN1CCN(c2nc3ccccc3n3nnnc23)CC1
inactive: dose: 37.5 mg/kg/injection, schedule: Q04DX003 (ip), vehicle: saline 104 % of control | dose: 75.0 mg/kg/injection, schedule: Q04DX003 (ip), vehicle: saline 107 % of control

O=[N+]([O-])c1cccc(/C=N/N2CCN(/N=C/c3cccc([N+](=O)[O-])c3)CC2)c1
inactive: [8] 102 % of control | [9] 92 % of control | dose: 400.0 mg/kg/injection, schedule: Q01DX001 (ip), vehicle: saline 96 % of control

Cn1c(=O)c2c(ncn2C)n(C)c1=O
inactive: dose: 25.0 mg/kg/injection, schedule: Q01DX Z (ip), vehicle: saline 92 % of control | dose: 50.0 mg/kg/injection, schedule: Q01DX Z (ip), vehicle: saline 90 % of control | [1] 93 % of control | dose: 100.0 mg/kg/injection, schedule: Q01DX Z (ip), vehicle: saline 92 % of control | dose: 115.0 mg/kg/injection, schedule: Q01DX001 (ip), vehicle: saline 97 % of control | dose: 175.0 mg/kg/injection, schedule: Q01DX001 (ip), vehicle: saline 111 % of control | [2] 95 % of control | dose: 200.0 mg/kg/injection, schedule: Q01DX Z (ip), vehicle: saline 90 % of control | dose: 265.0 mg/kg/injection, schedule: Q01DX001 (ip), vehicle: saline 103 % of control

COC(OC)c1[nH]c(=S)[nH]c(=O)c1Cc1c(Cl)cccc1Cl
inactive: [10] 101 % of control | [11] 103 % of control | [13] 94 % of control

NC(=S)N/N=C/c1ccccc1N
inactive: [1] 102 % of control | [2] 96 % of control | [12] 96 % of control

O=C(OC(c1ccccc1)c1ccccc1)c1ccc([N+](=O)[O-])cc1
inactive: dose: 100.0 mg/kg/injection, schedule: Q01DX001 (ip), vehicle: carboxymethylcellulose (CMC) 98 % of control | dose: 200.0 mg/kg/injection, schedule: Q01DX001 (ip), vehicle: carboxymethylcellulose (CMC) 104 % of control | dose: 400.0 mg/kg/injection, schedule: Q01DX001 (ip), vehicle: carboxymethylcellulose (CMC) 96 % of control

CC(C)c1cc(C(C)C)nc(NNc2nc(C(C)C)cc(C(C)C)n2)n1
inactive: [1] 102 % of control | [2] 100 % of control | [12] 98 % of control

O=Nc1ccc(O)cc1Cl
inactive: [3] 103 % of control and 88 % of control | [4] 117 % of control | [5] 95 % of control and 103 % of control

c1ccc(NC2CCN(C3(c4ccccc4)CCCCC3)CC2)cc1
inactive: dose: 100.0 mg/kg/injection, schedule: Q04DX002 (ip), vehicle: saline 100 % of control
